Reference: US20100087650A1, “(1R,1'R)-ATRACURIUM SALTS SEPARATION PROCESS” (CHEMAGIS LTD., priority 2007, published 2010)

Key:
[1] = Stability of (1R,1′R)-atracurium besylate solution in different buffers at room temperature (HPLC, USP procedure); assay type: physicochemical; conditions: for % of cisatracurium besylate after 24 hours / % of cisatracurium besylate at T = 0: 90% buffer/10% methanol
Procedure: (§1) The stability of the (1R,1′R)-atracurium besylate solution at room temperature for time periods of up to 24 hours was checked using different types of buffers (varying by the nature of the cation and the anion). The diluent was a mixture of 90% buffer and 10% methanol. The Cation concentration in each buffer was 20 mM. The HPLC conditions were according to the USP procedure. The results are depicted in Tables 11 and 12. The degradation (D), according to the data presented in Table 11, was calculated as follows: [formula] wherein, X0=% of cisatracurium at T0, and X24=% of cisatracurium at after 24 hours.

[2] = Stability of (1R,1′R)-atracurium besylate at different pH values in Na+CH3COO−/CH3COOH buffer; assay type: physicochemical; conditions: for % degradation: T0 to 21.0 hours
Procedure: as §1, with “12. […]” for “12.”, “(D)” for “(D),”, “12” for “11,”, “X21=%” for “X24=%”

[3] = Stability of (1R,1′R)-atracurium besylate sample solution at pH 1.0 and 2.0 (nitrate buffer) at room temperature and 4° C.; assay type: physicochemical
Procedure: A sample solution of (1R,1′R)-atracurium besylate (10 mg/ml) was prepared using two buffer solutions at pH values of 1.0 and 2.0 and analyzed on the C18 stationary phase by gradient elution [20 mM KNO3 buffer (at pH corresponding to sample preparation)—methanol]. […] [formula] wherein, X0=% of cisatracurium at T0, and X6/26=% of cisatracurium at after 6 or 26 hours.

[4] = Stability of (1R,1′R)-atracurium besylate at different pH values in Na+CH3COO−/CH3COOH buffer; assay type: physicochemical; conditions: T0 to 21.0 hours
[5] = more potent than atracurium besylate itself; cited from earlier work
[6] = CaBr2/HBr buffer pH 3.5, 20 mM cation
[7] = K+H2PO4 buffer pH 3.0, 20 mM cation
[8] = NH4+CH3COO−/CH3COOH buffer pH 3.5, 20 mM cation
[9] = NH4+CH3COO−/HCOOH buffer pH 3.5, 20 mM cation
[10] = Na+CH3COO−/CH3COOH buffer pH 3.5, 20 mM cation
[11] = Na+NO3−/HNO3 buffer pH 3.0, 20 mM cation
[12] = diethylamine/CH3COOH buffer pH 3.5, 20 mM cation
[13] = triethylamine/CH3COOH buffer pH 3.5, 20 mM cation
[14] = pH = 1, room temperature, 6 hours
[15] = pH = 1, room temperature, 26 hours
[16] = pH = 2, room temperature, 6 hours

COc1ccc(C[C@@H]2c3cc(OC)c(OC)cc3CC[N@+]2(C)CCC(=O)OCCCCCOC(=O)CC[N@@+]2(C)CCc3cc(OC)c(OC)cc3[C@H]2Cc2ccc(OC)c(OC)c2)cc1OC [cisatracurium besylate, 1R-cis-1′R-cis-2,2′2,2′-[1,5-pentanediylbis[oxy(3-oxo-3,1-propanediyl)]]bis[1-[(3,4-dimethoxyphenyl)methyl]-1,2,3,4-tetrahydro-6,7-dimethoxy-2-methyl-isoquinolinium dibenzenesulfonate]
% of cisatracurium besylate after 24 hours [1, 6]: 54.4% | % of cisatracurium besylate at T = 0 [1, 6]: 54.4% | % degradation ([1]; CaBr2/HBr buffer pH 3.5, 24 hours): 0% | % of cisatracurium besylate after 24 hours [1, 7]: 53.7% | % of cisatracurium besylate at T = 0 [1, 7]: 54.7% | % degradation ([1]; K+H2PO4 buffer pH 3.0, 24 hours): 1.8% | % of cisatracurium besylate after 24 hours [1, 8]: 52.9% | % of cisatracurium besylate at T = 0 [1, 8]: 54.7% | % degradation ([1]; NH4+CH3COO−/CH3COOH buffer pH 3.5, 24 hours): 3.3% | % of cisatracurium besylate after 24 hours [1, 9]: 54.3% | % of cisatracurium besylate at T = 0 [1, 9]: 54.6% | % degradation ([1]; NH4+CH3COO−/HCOOH buffer pH 3.5, 24 hours): 0.5% | % of cisatracurium besylate after 24 hours [1, 10]: 52.5% | % of cisatracurium besylate at T = 0 [1, 10]: 54.5% | % degradation ([1]; Na+CH3COO−/CH3COOH buffer pH 3.5, 24 hours): 3.7% | % of cisatracurium besylate after 24 hours [1, 11]: 54.5% | % of cisatracurium besylate at T = 0 [1, 11]: 54.5% | % degradation ([1]; Na+NO3−/HNO3 buffer pH 3.0, 24 hours): 0% | % of cisatracurium besylate after 24 hours [1, 12]: 53.2% | % of cisatracurium besylate at T = 0 [1, 12]: 54.7% | % degradation ([1]; diethylamine/CH3COOH buffer pH 3.5, 24 hours): 2.7% | % of cisatracurium besylate after 24 hours [1, 13]: 52.1% | % of cisatracurium besylate at T = 0 [1, 13]: 54.4% | % degradation ([1]; triethylamine/CH3COOH buffer pH 3.5, 24 hours): 4.2% | % of cisatracurium besylate ([2]; pH 3.0, Na+CH3COO−/CH3COOH buffer, 0.0 hours): 53.4% | % of cisatracurium besylate ([2]; pH 3.0, Na+CH3COO−/CH3COOH buffer, 10.0 hours): 51.3% | % of cisatracurium besylate ([2]; pH 3.0, Na+CH3COO−/CH3COOH buffer, 21.0 hours): 50.0% | change of % area of the 1R-cis,1′R-cis isomer (FIG. 7) ([2]; pH 3, after 20 hours): only slightly reduced | % of cisatracurium besylate ([2]; pH 3.5, Na+CH3COO−/CH3COOH buffer, 0.0 hours): 53.6% | % of cisatracurium besylate ([2]; pH 3.5, Na+CH3COO−/CH3COOH buffer, 10.0 hours): 51.0% | % of cisatracurium besylate ([2]; pH 3.5, Na+CH3COO−/CH3COOH buffer, 21.0 hours): 49.2% | % degradation ([2]; pH 3.5, Na+CH3COO−/CH3COOH buffer): 8.2% | % of cisatracurium besylate ([2]; pH 4.0, Na+CH3COO−/CH3COOH buffer, 0.0 hours): 53.4% | % of cisatracurium besylate ([2]; pH 4.0, Na+CH3COO−/CH3COOH buffer, 10.0 hours): 50.5% | % of cisatracurium besylate ([2]; pH 4.0, Na+CH3COO−/CH3COOH buffer, 21.0 hours): 47.9% | % of cisatracurium besylate ([2]; pH 4.5, Na+CH3COO−/CH3COOH buffer, 0.0 hours): 53.9% | % of cisatracurium besylate ([2]; pH 4.5, Na+CH3COO−/CH3COOH buffer, 10.0 hours): 49.9% | % of cisatracurium besylate ([2]; pH 4.5, Na+CH3COO−/CH3COOH buffer, 21.0 hours): 46.2% | % degradation ([2]; pH 4.5, Na+CH3COO−/CH3COOH buffer): 14.3% | % of cisatracurium besylate ([2]; pH 5.0, Na+CH3COO−/CH3COOH buffer, 0.0 hours): 53.6% | % of cisatracurium besylate ([2]; pH 5.0, Na+CH3COO−/CH3COOH buffer, 10.0 hours): 46.1% | % of cisatracurium besylate ([2]; pH 5.0, Na+CH3COO−/CH3COOH buffer, 21.0 hours): 38.4% | % of cisatracurium besylate ([2]; pH 5.5, Na+CH3COO−/CH3COOH buffer, 0.0 hours): 53.6% | % of cisatracurium besylate ([2]; pH 5.5, Na+CH3COO−/CH3COOH buffer, 10.0 hours): 40.8% | % of cisatracurium besylate ([2]; pH 5.5, Na+CH3COO−/CH3COOH buffer, 21.0 hours): 27.8% | change of % area of the 1R-cis,1′R-cis isomer (FIG. 7) ([2]; pH 5.5, after 20 hours): significantly reduced | % area of the cis-cis isomer ([3]; pH = 1, 4° C., 0 hours): 54.9% | % area of the cis-cis isomer ([3]; pH = 1, 4° C., 6 hours): 53.9% | D, % (degradation) ([3]; pH = 1, 4° C., 6 hours): 1.8% | % area of the cis-cis isomer ([3]; pH = 1, 4° C., 26 hours): 52.8% | D, % (degradation) ([3]; pH = 1, 4° C., 26 hours): 3.8% | % area of the cis-cis isomer ([3]; pH = 1, room temperature, 0 hours): 54.9% | % area of the cis-cis isomer [3, 14]: 50.2% | D, % (degradation) [3, 14]: 8.6% | % area of the cis-cis isomer [3, 15]: 38.8% | D, % (degradation) [3, 15]: 29.3% | % area of the cis-cis isomer ([3]; pH = 2, 4° C., 0 hours): 54.8% | % area of the cis-cis isomer ([3]; pH = 2, 4° C., 6 hours): 54.8% | D, % (degradation) ([3]; pH = 2, 4° C., 6 hours): 0% | % area of the cis-cis isomer ([3]; pH = 2, 4° C., 26 hours): 54.7% | D, % (degradation) ([3]; pH = 2, 4° C., 26 hours, nitrate buffer): 0.2% | % area of the cis-cis isomer ([3]; pH = 2, room temperature, 0 hours): 54.8% | % area of the cis-cis isomer [3, 16]: 54.5% | D, % (degradation) [3, 16]: 0.5% | % area of the cis-cis isomer ([3]; pH = 2, room temperature, 26 hours): 53.8% | D, % (degradation) ([3]; pH = 2, room temperature, 26 hours, nitrate buffer): less than 2% | D, % (degradation) ([3]; pH = 2, room temperature, 26 hours, nitrate buffer, listed as cis-cis isomer): 1.8% | stability under the separation conditions ([3]; separation conditions of the invention (mildly acidic or buffered aqueous mobile phase)): substantially stable | % degradation ([4]; pH 3.0, Na+CH3COO−/CH3COOH buffer): 6.4% | % degradation ([4]; pH 4.0, Na+CH3COO−/CH3COOH buffer): 10.3% | % degradation ([4]; pH 5.0, Na+CH3COO−/CH3COOH buffer): 28.4% | % degradation ([4]; pH 5.5, Na+CH3COO−/CH3COOH buffer): 48.1% | potency relative to atracurium besylate [5]: 3-4 times
